Test results published in patent US8871751B2, “Compositions and methods relating to nuclear hormone and steroid hormone receptors including inhibitors of estrogen receptor alpha-mediated gene expression and inhibition of breast cancer” (The Board of Trustees of the University of Illinois, priority 2008, dated 2014).
“And” between values parts separate entries of the source, which are not always exact repeats. Identical values can stand only once. Like-named read-outs stand apart in the source and are kept apart here.

What was measured:
AR = target: T1, AR (Homo sapiens, UniProt P10275); assay: AR-mediated gene expression, PSA-luciferase reporter in stable HeLa-AR cells; format: cell-based; conditions: for IC50: 24 h
T1 construct: expressed in transfected cells; host or cells: HeLa (HeLa-AR / HeLaAR)
T1 sequence (P10275 1-920): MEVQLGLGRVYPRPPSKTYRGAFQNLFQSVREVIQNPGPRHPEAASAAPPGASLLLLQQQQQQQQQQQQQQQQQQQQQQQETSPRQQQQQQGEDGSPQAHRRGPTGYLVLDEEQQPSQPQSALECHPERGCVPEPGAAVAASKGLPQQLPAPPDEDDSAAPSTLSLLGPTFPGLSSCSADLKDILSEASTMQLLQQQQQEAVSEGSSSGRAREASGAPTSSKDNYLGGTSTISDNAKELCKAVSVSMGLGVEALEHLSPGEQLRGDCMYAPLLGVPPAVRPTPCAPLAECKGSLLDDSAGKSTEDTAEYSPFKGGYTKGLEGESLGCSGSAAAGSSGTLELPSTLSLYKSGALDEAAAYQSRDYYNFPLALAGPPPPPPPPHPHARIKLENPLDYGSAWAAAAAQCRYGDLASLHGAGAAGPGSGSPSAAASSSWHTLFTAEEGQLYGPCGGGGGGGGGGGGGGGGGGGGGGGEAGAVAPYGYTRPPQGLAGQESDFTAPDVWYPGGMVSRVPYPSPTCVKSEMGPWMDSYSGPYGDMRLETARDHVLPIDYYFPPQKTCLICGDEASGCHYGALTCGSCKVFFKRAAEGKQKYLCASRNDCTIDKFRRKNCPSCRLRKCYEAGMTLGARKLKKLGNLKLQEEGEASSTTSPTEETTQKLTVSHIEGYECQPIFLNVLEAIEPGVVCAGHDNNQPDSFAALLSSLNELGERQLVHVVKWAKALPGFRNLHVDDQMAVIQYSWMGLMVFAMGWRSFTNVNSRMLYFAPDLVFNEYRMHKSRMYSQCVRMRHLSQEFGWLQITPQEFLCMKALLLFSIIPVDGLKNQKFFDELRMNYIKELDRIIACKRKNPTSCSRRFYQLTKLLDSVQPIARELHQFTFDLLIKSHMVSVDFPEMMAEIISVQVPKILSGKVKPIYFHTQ
Description: FIG. 9. Effect of some Theophylline-related compounds on AR-mediated gene expression in stable HeLa-AR cells. Assays were performed as described for ER in the legend to FIG. 4 and PR/GR in FIG. 5. The cells were incubated with 80 pM DHT and the indicated concentration of each small molecule. Luciferase activity was measured after 24 hours. The data represent the mean±SEM for 3 separate experiments at each concentration.
(§1) Reporter Gene Assays. TPSF was identified by reporter gene assays comparing the ability of ˜200 compounds structurally related to TPBM (see reference 19) to inhibit transcription of a stably transfected (ERE)3-luciferase reporter gene in T47D-KBluc breast cancer cells (20). AR was assayed in stably transfected HeLa cells and GR was assayed in stably transfected T47D cells maintained as described above. Four days before each experiment the cells were switched to medium containing CD-treated serum as described above. The HeLaAR cells were plated at 100,000 cells/well and the T47D/A1-2 and T47D-KBluc cells were plated at 200,000 cells/well in 1 ml of their respective media in 24-well plates. After 24 hours the indicated concentrations of E2, dihydrotestosterone (DHT) or dexamethasone (Dex) and DMSO vehicle, with or without TPSF, were added to each well. After 24 hours, the cells were washed once in phosphate buffered saline and lysed using 100 μl of 1× Passive Lysis Buffer (Promega, Madison Wis.). Luciferase activity was determined using BrightGlo firefly luciferase reagent from Promega (Madison, Wis.).

60 cancer cell lines = conditions: independent testing at NCI Developmental Therapeutics Program, cited from earlier work
GR = target: T2, GR (Rattus norvegicus, UniProt P06536); assay: GR transactivation, MMTV-luciferase reporter in T47D cells; format: cell-based, human
T2 construct: expressed in transfected cells; host or cells: T47D/A1-2
T2 sequence (P06536 1-795): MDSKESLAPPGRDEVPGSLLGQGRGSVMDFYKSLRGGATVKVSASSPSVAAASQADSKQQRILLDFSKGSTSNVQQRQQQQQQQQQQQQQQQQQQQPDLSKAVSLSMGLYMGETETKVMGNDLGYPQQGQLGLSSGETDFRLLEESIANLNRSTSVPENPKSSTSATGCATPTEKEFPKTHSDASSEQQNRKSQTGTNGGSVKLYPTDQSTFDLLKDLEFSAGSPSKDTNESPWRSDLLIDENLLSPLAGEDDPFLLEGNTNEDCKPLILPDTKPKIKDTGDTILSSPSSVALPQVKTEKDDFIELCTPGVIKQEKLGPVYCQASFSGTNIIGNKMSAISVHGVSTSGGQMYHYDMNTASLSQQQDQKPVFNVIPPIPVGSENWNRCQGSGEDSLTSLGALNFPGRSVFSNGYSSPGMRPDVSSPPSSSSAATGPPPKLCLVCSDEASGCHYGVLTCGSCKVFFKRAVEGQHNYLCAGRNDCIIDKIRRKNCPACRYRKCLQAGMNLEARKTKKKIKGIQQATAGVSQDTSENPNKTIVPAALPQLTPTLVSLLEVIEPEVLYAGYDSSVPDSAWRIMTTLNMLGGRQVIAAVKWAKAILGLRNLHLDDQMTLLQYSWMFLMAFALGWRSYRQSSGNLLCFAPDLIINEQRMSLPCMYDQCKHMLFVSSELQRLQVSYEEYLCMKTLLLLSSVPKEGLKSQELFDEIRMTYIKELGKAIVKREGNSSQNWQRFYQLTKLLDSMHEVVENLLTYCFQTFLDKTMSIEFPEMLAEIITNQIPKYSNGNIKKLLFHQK
Description: The T47D-KBluc cells stably express an (ERE)3-luciferase reporter gene (38). Cells were maintained in phenol red-free RPMI 1640 with 2 mM L-glutamine, 1.5 g/l sodium bicarbonate, 4.5 g/l glucose, 10 mM Hepes, pH 7.5, 1 mM sodium pyruvate, 10% FBS (Atlanta Biological, Atlanta, Ga.) and antibiotics. Four days before E2 induction, the cells were switched to the above medium, with 10% 2× charcoal-dextran-treated calf serum instead of FBS. 200,000 cells/well were transferred to each well of a 24-well plate. After 24 h the indicated concentrations of the test compounds were added in DMSO and E2 was added to 20 pM. After 24 h cells were washed once in PBS, and 150 μl 1× Passive Lysis Buffer (Promega, Madison Wis.) was used to lyse the cells. Luciferase activity was determined using firefly luciferase reagents from Promega (Madison, Wis.). T47D cells stably transfected to express GR and a mouse mammary tumor virus luciferase reporter that responds to liganded GR and PR were maintained and assayed in medium containing 5 nM progesterone for PR assays, or 2.5 nM dexamethsaone for GR assays, essentially as described (39).
as §1

[1] = HeLa-AR cells, 80 pM DHT, read-out: AR-IC50

| Structure (SMILES) | AR at 10 μM (AR) | IC50 (AR; [1]) [µM] | further results |
| --- | --- | --- | --- |
| CCCSc1nc2c([nH]1)c(=O)n(C)c(=S)n2C [Compound 95869, 1,3-Dimethyl-8-propylsulfanyl-2-thioxo-1,2,3,7-tetrahydro-purin-6-one] | 90 | 1 |  |
| Cn1c(=O)c2[nH]c(SC3CCCCC3)nc2n(C)c1=S [Compound 95899, 8-Cyclohexylsulfanyl-1,3-dimethyl-2-thioxo-1,2,3,7-tetrahydro-purin-6-one] | 88 | 2.5 |  |
| Cn1c(=O)c2nc(CSCc3ccccc3)[nH]c2n(C)c1=O [Compound 95910, 8-Benzylsulfanylmethyl-1,3-dimethyl-3,7-dihydro-purine-2,6-dione] |  |  | effect on breast and ovarian cell growth (60 cancer cell lines; up to 100 μM): did not inhibit; inhibition at 30 µM (GR; T47D, 30 μM, 2.5 nM dexamethasone): ~35%; effect on GR transactivation (GR; up to 20 μM, 2.5 nM dexamethasone): did not inhibit |
| Cn1c(=O)c2[nH]c(C3CC4CCC3C4)nc2n(C)c1=O (stereo not drawn) [Compound 101807, 8-Bicyclo[2.2.1]hept-2-yl-1,3-dimethyl-3,7-dihydro-purine-2,6-dione] | 50 | 5 |  |
| Cn1c(=S)c2[nH]c(SCCCC(=O)c3ccc(F)cc3)nc2n(C)c1=O [TPSF, Butyrophenone, p-fluoro-4-(1,2,3,6,-tetrahydro-1,3-dimethyl-2-oxo-6-thionopurin-8-ylthio)] |  |  | effect on growth of a panel of 60 cancer cell lines (60 cancer cell lines; 10 μM): does not inhibit growth; IC50 (AR; stably transfected HeLa cells, 1 μM DHT, read-out: IC50 for inhibition of AR gene expression (PSA-Luc)): 33 µM and 34 µM; IC50 (GR; stably transfected T47D cells, 100 nM Dex, 24 h, read-out: IC50 for inhibition of GR gene expression (MMTV-Luc)): 10 µM |
